# Experimental data: PMC10378394 (Current Issues in Molecular Biology, 2023)
# Assays:
# p70S6K(h) = p70S6K(h) (Homo sapiens, UniProt P23443); experiment: Eurofins kinase assay
# FGFR3(h) = FGFR3(h) (Homo sapiens, UniProt P22607); experiment: Eurofins kinase assay
# Fyn(h) = Fyn(h) (Homo sapiens, UniProt P06241); experiment: Eurofins kinase assay
# CDK3/cyclinE(h) = CDK3/cyclinE(h) (Homo sapiens, UniProt Q00526); experiment: Eurofins kinase assay
# MEK1(h) = MEK1(h) (Homo sapiens, UniProt Q02750); experiment: Eurofins kinase assay
# PKCγ(h) = PKCγ(h) (Homo sapiens, UniProt P05129); experiment: Eurofins kinase assay
# CaMKIIβ(h) = CaMKIIβ(h) (Homo sapiens, UniProt Q13554); experiment: Eurofins kinase assay
# PRAK(h) = PRAK(h) (Homo sapiens, UniProt Q8IW41); experiment: Eurofins kinase assay
# PKCβII(h) = PKCβII(h) (Homo sapiens, UniProt P05771); experiment: Eurofins kinase assay
# HCT116 (KRAS G13D) = experiment: Cell proliferation assay (CellTiter-Glo); conditions: Homo sapiens, HCT-116, 72 h
# Experimental: To assess cell viability, the CellTiter-Glo Luminescent Cell Viability Assay Reagent (Promega, Fitchburg, WI, USA) was added to each well. The assay measured ATP levels as an indicator of cell viability. All data points were normalized to the control samples treated with dimethyl sulfoxide when determining IC50 values. Statistical calculations and data analysis, including IC50 determination, were performed using GraphPad Prism software.
# NEK2(h) = NEK2(h) (Homo sapiens, UniProt P51955); experiment: Eurofins kinase assay
# PAR-1Bα(h) = PAR-1Bα(h) (Homo sapiens, UniProt Q7KZI7); experiment: Eurofins kinase assay
# EGFR(h) = EGFR(h) (Homo sapiens, UniProt P00533); experiment: Eurofins kinase assay
# BRAF = BRAF (Homo sapiens, UniProt P15056); experiment: KiNativ cell-based kinase assay in HCT116; set-up: purchased Eurofins (Poitiers, France)
# BRAF, sequence (P15056 whole entry): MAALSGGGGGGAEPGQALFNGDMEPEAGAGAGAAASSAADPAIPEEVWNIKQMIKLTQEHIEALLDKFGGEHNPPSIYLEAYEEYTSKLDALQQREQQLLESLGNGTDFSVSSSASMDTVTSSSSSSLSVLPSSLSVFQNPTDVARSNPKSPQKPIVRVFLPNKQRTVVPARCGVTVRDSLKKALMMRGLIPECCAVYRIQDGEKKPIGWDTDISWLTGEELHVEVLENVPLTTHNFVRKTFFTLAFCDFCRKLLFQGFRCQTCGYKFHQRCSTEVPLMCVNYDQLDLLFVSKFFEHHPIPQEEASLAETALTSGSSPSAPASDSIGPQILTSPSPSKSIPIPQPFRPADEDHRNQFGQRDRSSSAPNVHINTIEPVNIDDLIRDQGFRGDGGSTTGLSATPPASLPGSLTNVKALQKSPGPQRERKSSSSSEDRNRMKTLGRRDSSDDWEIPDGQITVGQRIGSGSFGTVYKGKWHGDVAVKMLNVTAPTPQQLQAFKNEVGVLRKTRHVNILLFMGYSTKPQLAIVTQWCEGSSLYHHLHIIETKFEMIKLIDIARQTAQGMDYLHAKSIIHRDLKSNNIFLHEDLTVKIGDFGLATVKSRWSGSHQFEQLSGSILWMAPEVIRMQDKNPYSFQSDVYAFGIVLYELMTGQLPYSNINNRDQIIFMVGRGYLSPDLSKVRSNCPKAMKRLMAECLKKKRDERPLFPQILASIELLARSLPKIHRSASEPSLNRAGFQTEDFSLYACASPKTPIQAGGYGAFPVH
# Experimental: (§1) Kinase selectivity profiling in cells was carried out using the KiNativ assay developed by ActivX Biosciences (La Jolla, CA, USA). HCT 116 cells were utilized for the experiment. […] Following the treatment, the cells were lysed, and the lysates were processed for further analysis. Probe labeling was performed using the lysates, and the labeled samples were subjected to LC/MS-MS (Liquid Chromatography/Mass Spectrometry) analysis.
# CRAF = CRAF (Homo sapiens, UniProt P04049); experiment: KiNativ cell-based kinase assay in HCT116; set-up: purchased Eurofins (Poitiers, France)
# CRAF, sequence (P04049 whole entry): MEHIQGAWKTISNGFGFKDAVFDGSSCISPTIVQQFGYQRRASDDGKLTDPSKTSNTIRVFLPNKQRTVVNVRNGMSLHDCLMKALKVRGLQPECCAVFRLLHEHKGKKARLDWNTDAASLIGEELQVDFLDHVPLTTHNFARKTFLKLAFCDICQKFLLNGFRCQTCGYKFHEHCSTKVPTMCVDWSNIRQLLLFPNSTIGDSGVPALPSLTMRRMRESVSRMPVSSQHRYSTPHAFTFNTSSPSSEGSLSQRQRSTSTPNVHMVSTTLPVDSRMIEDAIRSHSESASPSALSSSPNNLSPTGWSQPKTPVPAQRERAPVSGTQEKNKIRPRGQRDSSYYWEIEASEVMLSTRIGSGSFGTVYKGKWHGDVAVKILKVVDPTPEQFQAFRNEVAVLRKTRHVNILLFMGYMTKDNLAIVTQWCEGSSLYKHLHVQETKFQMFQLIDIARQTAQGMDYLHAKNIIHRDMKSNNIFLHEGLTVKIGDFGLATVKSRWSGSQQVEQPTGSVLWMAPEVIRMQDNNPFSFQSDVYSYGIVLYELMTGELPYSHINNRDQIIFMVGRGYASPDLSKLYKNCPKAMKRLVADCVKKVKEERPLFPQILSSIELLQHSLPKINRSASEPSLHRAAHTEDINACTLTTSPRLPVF
# Experimental: as §1
# ARAF = target: T1, ARAF (Homo sapiens, UniProt P10398); experiment: KiNativ cell-based kinase assay in HCT116; set-up: purchased Eurofins (Poitiers, France); conditions: HCT116, full-length protein; read-out: Binding Affinities in HCT116 (EC50)
# T1 sequence (P10398 1-606): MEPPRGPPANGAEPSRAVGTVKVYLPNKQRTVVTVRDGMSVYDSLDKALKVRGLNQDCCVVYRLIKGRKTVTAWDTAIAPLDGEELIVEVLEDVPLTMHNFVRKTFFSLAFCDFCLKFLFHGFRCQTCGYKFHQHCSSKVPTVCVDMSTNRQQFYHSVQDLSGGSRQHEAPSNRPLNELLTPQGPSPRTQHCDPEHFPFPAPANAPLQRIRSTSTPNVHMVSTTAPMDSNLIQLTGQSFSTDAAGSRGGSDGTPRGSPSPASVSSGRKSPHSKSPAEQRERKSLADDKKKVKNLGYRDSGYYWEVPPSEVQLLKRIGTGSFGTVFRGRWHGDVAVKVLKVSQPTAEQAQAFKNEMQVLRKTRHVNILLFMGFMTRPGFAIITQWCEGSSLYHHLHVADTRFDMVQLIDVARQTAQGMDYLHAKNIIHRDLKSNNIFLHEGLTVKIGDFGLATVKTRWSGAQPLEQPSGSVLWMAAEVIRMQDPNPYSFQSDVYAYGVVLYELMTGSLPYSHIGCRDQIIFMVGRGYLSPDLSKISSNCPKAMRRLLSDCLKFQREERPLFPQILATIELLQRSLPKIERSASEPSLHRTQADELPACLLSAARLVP
# Experimental: as §1
# CaMKIV(h) = CaMKIV(h) (Homo sapiens, UniProt Q16566); experiment: Eurofins kinase assay
# PKBγ(h) = PKBγ(h) (Homo sapiens, UniProt Q9Y243); experiment: Eurofins kinase assay
# Rsk1(r) = Rsk1(r) (Rattus norvegicus, UniProt Q63531); experiment: Eurofins kinase assay
# Rsk2(h) = Rsk2(h) (Homo sapiens, UniProt P51812); experiment: Eurofins kinase assay
# Rsk2(h), sequence (P51812 whole entry): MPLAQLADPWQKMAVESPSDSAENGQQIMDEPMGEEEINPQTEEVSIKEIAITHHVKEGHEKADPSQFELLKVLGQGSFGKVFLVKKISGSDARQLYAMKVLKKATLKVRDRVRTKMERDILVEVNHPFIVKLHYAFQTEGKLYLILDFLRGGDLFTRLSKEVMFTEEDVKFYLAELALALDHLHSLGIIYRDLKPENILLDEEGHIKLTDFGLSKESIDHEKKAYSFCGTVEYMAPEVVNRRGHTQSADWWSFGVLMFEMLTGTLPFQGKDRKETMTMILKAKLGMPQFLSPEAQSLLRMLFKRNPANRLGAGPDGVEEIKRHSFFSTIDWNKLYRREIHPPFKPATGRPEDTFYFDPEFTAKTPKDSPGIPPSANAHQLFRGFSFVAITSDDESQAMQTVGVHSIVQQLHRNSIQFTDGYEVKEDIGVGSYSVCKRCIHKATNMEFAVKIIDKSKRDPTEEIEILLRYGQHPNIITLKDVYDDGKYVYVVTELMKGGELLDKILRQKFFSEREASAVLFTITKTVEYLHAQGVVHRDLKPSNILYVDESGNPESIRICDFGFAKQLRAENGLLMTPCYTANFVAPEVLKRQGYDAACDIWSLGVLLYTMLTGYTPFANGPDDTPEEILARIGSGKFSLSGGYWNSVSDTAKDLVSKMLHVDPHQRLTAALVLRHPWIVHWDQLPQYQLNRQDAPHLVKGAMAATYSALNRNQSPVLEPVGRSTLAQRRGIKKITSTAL
# PKCδ(h) = PKCδ(h) (Homo sapiens, UniProt Q05655); experiment: Eurofins kinase assay
# [1] = 2-week repeated oral DRF study; format: in vivo; conditions: 500 mg/kg oral
# PKCα(h) = PKCα(h) (Homo sapiens, UniProt P17252); experiment: Eurofins kinase assay
# PKCι(h) = PKCι(h) (Homo sapiens, UniProt P41743); experiment: Eurofins kinase assay
# PKBβ(h) = PKBβ(h) (Homo sapiens, UniProt P31751); experiment: Eurofins kinase assay
# Flt3(h) = Flt3(h) (Homo sapiens, UniProt P36888); experiment: Eurofins kinase assay
# Flt3(h), sequence (P36888 27-993): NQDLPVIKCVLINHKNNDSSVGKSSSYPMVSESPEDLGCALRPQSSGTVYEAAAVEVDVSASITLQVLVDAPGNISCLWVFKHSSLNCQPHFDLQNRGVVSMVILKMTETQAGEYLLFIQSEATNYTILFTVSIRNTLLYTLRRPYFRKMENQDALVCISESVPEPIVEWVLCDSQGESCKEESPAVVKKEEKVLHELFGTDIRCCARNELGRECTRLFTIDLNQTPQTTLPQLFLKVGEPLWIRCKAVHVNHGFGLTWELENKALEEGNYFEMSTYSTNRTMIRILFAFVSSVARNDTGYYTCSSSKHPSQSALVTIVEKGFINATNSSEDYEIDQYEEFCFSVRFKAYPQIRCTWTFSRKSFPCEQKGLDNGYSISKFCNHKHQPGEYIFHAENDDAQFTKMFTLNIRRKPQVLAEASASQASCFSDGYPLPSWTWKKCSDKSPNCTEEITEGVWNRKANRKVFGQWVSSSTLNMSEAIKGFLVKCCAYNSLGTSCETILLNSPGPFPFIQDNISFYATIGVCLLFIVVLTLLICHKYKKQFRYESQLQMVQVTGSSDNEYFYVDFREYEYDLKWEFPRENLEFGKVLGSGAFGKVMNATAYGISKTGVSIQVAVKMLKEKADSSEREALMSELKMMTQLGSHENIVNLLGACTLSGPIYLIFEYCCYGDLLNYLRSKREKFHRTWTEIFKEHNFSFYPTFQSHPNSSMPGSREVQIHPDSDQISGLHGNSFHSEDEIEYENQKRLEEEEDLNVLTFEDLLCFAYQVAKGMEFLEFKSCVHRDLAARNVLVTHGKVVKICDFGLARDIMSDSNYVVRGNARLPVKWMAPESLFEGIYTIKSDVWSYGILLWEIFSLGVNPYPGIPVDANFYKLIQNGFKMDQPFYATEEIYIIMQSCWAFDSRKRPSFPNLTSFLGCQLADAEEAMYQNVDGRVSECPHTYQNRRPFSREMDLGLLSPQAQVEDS
# [2] = Tolerability in mouse xenograft experiments; format: in vivo
# Experimental: Human-derived colorectal cancer cell lines, LS513, HCT-116, and HT29, were subcutaneously transplanted into 6-week-old female BALB/c nude mice to establish tumor models. Additionally, the mouse cancer cell line MC38 was subcutaneously transplanted into 6-week-old female and C57BL/6 mice to induce tumor formation. […]. The treatments were administered orally once daily for 2 weeks based on the growth rate observed in the vehicle group. Tumor volume was evaluated three times a week using the formula Tumor volume (TV) = (tumor short diameter ^2 × tumor long diameter)/2. The body weight of the mice was measured three times a week to assess potential toxicity in vivo. […]
# [3] = HCT116, full-length protein, read-out: Binding Affinities in HCT116 (EC50)
# [4] = HCT 116 cells, 2 h, 10 µM, read-out: inhibition of probe binding
# Fyn(h), sequence (P06241 whole entry): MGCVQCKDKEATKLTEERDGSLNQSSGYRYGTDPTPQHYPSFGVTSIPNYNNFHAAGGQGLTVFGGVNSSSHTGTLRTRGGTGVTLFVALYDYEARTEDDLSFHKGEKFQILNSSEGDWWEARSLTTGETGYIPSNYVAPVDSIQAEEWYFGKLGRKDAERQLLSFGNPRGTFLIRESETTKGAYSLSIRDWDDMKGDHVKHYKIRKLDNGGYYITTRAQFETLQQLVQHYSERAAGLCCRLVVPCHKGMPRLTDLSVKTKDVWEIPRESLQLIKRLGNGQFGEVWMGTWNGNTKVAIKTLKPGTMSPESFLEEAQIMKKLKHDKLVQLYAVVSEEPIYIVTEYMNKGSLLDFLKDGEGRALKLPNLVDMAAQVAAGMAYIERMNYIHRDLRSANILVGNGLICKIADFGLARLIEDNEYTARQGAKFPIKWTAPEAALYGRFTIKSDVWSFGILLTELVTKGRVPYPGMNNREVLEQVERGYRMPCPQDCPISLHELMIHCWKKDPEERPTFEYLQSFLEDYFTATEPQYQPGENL
# p70S6K(h), sequence (P23443 whole entry): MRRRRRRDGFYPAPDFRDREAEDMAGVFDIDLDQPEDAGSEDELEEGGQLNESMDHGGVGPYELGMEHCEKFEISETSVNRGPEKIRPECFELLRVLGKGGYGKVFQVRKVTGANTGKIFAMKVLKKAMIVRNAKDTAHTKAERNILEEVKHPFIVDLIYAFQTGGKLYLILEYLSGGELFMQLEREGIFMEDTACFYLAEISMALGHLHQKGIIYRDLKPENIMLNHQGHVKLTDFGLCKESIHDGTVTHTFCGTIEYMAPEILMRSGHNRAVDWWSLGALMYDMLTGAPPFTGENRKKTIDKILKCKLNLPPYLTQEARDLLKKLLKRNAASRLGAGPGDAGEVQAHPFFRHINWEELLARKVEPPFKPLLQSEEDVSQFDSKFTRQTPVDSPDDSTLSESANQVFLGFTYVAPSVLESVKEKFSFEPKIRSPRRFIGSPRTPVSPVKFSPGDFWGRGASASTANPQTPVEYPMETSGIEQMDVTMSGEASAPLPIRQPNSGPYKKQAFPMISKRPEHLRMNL
smiles,measurement,setting,value
"O=C(Nc1cc(Nc2ncccc2-c2ncnc3[nH]cnc23)ccc1F)c1cc(C(F)(F)F)cc(C(F)(F)F)c1 [SJ-C1044, N-(5-(3-(9H-purin-6-yl)pyridin-2-ylamino)-2-fluorophenyl)-3,5-bis(trifluoromethyl)benzamide]",inhibition at 10 µM,p70S6K(h),8%
same,inhibition at 10 µM,FGFR3(h),48%
same,inhibition at 10 µM,Fyn(h),27%
same,inhibition at 10 µM,CDK3/cyclinE(h),-7%
same,inhibition at 10 µM,MEK1(h),1%
same,inhibition at 10 µM,PKCγ(h),1%
same,inhibition at 10 µM,CaMKIIβ(h),-5%
same,inhibition at 10 µM,PRAK(h),-15%
same,inhibition at 10 µM,PKCβII(h),10%
same,GI50,HCT116 (KRAS G13D),160 nM
same,inhibition at 10 µM,NEK2(h),-4%
same,inhibition at 10 µM,PAR-1Bα(h),3%
same,inhibition at 10 µM,EGFR(h),-4%
same,EC50,BRAF; [3],1300 nM
same,inhibition at 10 µM,BRAF; [4],86%
same,EC50,CRAF; [3],1400 nM
same,inhibition at 10 µM,CRAF; [4],83%
same,EC50,ARAF,> 10000 nM
same,inhibition at 10 µM,CaMKIV(h),2%
same,inhibition at 10 µM,PKBγ(h),2%
same,inhibition at 10 µM,Rsk1(r),-12%
same,inhibition at 10 µM,Rsk2(h),-4%
same,inhibition at 10 µM,PKCδ(h),-14%
same,2-week repeated oral toxicity,[1],no indications of toxicity
same,inhibition at 10 µM,PKCα(h),-14%
same,inhibition at 10 µM,PKCι(h),11%
same,inhibition at 10 µM,PKBβ(h),1%
same,inhibition at 10 µM,Flt3(h),3%
same,toxicity and weight loss,[2],no signs of toxicity or significant weight loss
